Laboratory results reported in US12297224B2, “Crystal form, preparation method, and application of 4'-substituted nucleoside” (Henan Genuine Biotech Co., Ltd., priority 2018, dated 2025).
Where two headings read alike, the source gives them in different places.

Assays:
HIV-1 (HIV-luc/JRFL) = assay: microbe, parasite or virus in culture; assay type: cell-based; conditions: for EC50: read-out: anti-HIV activity EC50 (50% effective concentration)
From the text: The plasmids used for packaging pseudotyped single-cycle infectious HIV-1 (HIV-luc/JRFL) are as follows: the plasma pLAI-Aenv-Luc contains HIV-1 isolate in which Env and Vpr genes are deleted and luciferase gene is inserted into the Nef locus; and the plasma pJRFL contains CCR5-tropic HIV-1 env gene; the two plasmas are co-transfected into HEK293T cells; the supernatant was collected, filtered, and packaged; and the virion capture was quantified by […] ELISA.
(§1) CD4^+ T cells (Hut/CCR5) were cultured in RPMI 1640 medium (Gibco) containing 10% fetal bovine serum (Gibco), 100 U/mL penicillin (Invitrogen), and 100 […] (Invitrogen). 1×10^5 Hut/CCR5 cells were added to the compound Ia or Ib, infected with HIV-luc/JRFL (1 ng p24gag), incubated at 37° C. for 3 hours, washed to remove free virus, and resuspended in cell culture medium, followed by addition of the corresponding compound to be tested, incubated at 37° C. for 3 days, and collected for measurement of the luciferase activity and calculation of the percentage of viral inhibition.
as §1, with “in” for “in RPMI”, “Ig-TP (CL-002-TP),” for “Ia or Ib,”, “virus” for “viral”

CD4+ T cells (Hut/CCR5) = assay: in vitro; assay type: cell-based
Procedure: (§2) CD4^+ T cells (Hut/CCR5) were plated into the wells of a 96-well plate ([…]), followed by addition of different compounds to be tested; the 96-well plate was incubated at 37° C. in an incubator for 3 days; 20 μL of MTT solution was added into the wells ([…]) of the 96-well plate; the 96-well plate was incubated at 37° C. in the incubator for 4 hours; 100 μL of Formazan solution was added into the wells of the 96-well plate; the 96-well plate was incubated at 37° C. in the incubator until the complete dissolution of Formazan was observed by a common optical microscope; and the absorbance of the solution was measured at 570 nm (as shown in FIGS. 2 and 4).
(§3) The cytotoxicity of the compound Ig-TP on CD4^+ T cells (Hut/CCR5) was measured using MTT assay.

[1] = Drug concentration in PBMC after oral administration in rhesus monkeys; assay type: in vivo; set-up: concentration of Ig-TP in PBMC: unit not given here; conditions: for Drug concentration in PBMC, Compound 3TC-TP: oral 3TC 20 mg/kg
Procedure: The PBMC was separated from the remaining venous blood with Ficoll-Paque separation medium, condensed to 0.3 mL of cell suspension, counted, and stored frozen below −20° C.
The PBMC sample was crushed with an ultrasonic cell crusher, followed by addition of 3 times volume of acetonitrile, vortexed for 60 seconds, followed by 1 volume of the water, vortexed for 60 seconds, and centrifuged at 3000 rpm for 5 minutes; the supernatant was aspirated, transferred into a 10 mL round-bottom glass tube, dried in a stream of nitrogen at 40° C., and redissolved in 500 μL of methanol solution (methanol: water=2:8 (v/v)); the resulting solution was vortexed for 60 seconds, transferred into a 1.5 mL EP tube, centrifuged at 13000 rpm for 5 minutes, filtered, and centrifuged to obtain […] of supernatant for […] analysis.

in vitro = assay type: cell-based; conditions: human
Procedure: as §2, §3

[2] = Drug concentration in plasma after oral administration in rhesus monkeys; assay type: in vivo; conditions: oral 6 mg/kg compound Ia, 24 hours
HIV = conditions: literature (Michailidis et al 2009); read-out: anti-HIV EC50; cited from earlier work
[3] = Human immunodeficiency virus 1, Hut/CCR5, 72 h

Structure (SMILES): [N-]=[N+]=NC1(COP(=O)(O)OP(=O)(O)OP(=O)(O)O)OC(n2ccc(N)nc2=O)CC1O (stereo not drawn) [Compound Ig-TP]
- inhibition of HIV viral proliferation IC50 (HIV-1 (HIV-luc/JRFL); Hut/CCR5 cells, HIV-luc/JRFL): 0.373 ng/mL
- EC50 (HIV-1 (HIV-luc/JRFL); Hut/CCR5 cells, HIV-luc/JRFL, 3 days): 1.3 nM
- IC50 (HIV-1 (HIV-luc/JRFL); Hut/CCR5 cells, HIV-luc/JRFL, read-out: inhibition of HIV viral proliferation IC50): 1.3 nM
- CC50 (CD4+ T cells (Hut/CCR5)): 8130 nM
- cytotoxicity CC50 (CD4+ T cells (Hut/CCR5)): 2,328 ng/ml
- Drug concentration in PBMC, Compound Ig-TP ([1]; oral compound Ig 1 mg/kg, 1 h): 0.39 pmol/10^6 cells
- Drug concentration in PBMC, Compound Ig-TP ([1]; oral compound Ig 1 mg/kg, 6 h): 2.10 pmol/10^6 cells
- Drug concentration in PBMC, Compound Ig-TP ([1]; oral compound Ig 1 mg/kg, 24 h): 0.29 pmol/10^6 cells
- Drug concentration in PBMC, Compound Ig-TP ([1]; oral compound Ig 1 mg/kg, 72 h): 0.66 pmol/10^6 cells
- Drug concentration in PBMC, Compound Ig-TP ([1]; oral compound Ig 1 mg/kg, 120 h): 0.54 pmol/10^6 cells
- Drug concentration in PBMC, Compound Ig-TP ([1]; oral compound Ig 6 mg/kg, 1 h): 0.23 pmol/10^6 cells
- Drug concentration in PBMC, Compound Ig-TP ([1]; oral compound Ig 6 mg/kg, 6 h): 4.07 pmol/10^6 cells
- Drug concentration in PBMC, Compound Ig-TP ([1]; oral compound Ig 6 mg/kg, 24 h): 0.44 pmol/10^6 cells
- Drug concentration in PBMC, Compound Ig-TP ([1]; oral compound Ig 6 mg/kg, 72 h): 1.85 pmol/10^6 cells
- Drug concentration in PBMC, Compound Ig-TP ([1]; oral compound Ig 6 mg/kg, 120 h): 1.35 pmol/10^6 cells
- concentration of Ig-TP in PBMC ([1]; rhesus monkeys, oral 6 mg/kg compound Ig, 120 hours (5 days)): 1.35

Structure (SMILES): Nc1ccn([C@@H]2CS[C@H](COP(=O)(O)OP(=O)(O)OP(=O)(O)O)O2)c(=O)n1 [Compound 3TC-TP, reference compound]
- Drug concentration in PBMC, Compound 3TC-TP ([1]; 1 h): 0.51 pmol/10^6 cells
- Drug concentration in PBMC, Compound 3TC-TP ([1]; 6 h): 2.45 pmol/10^6 cells

Structure (SMILES): C#CC1(CO)OC(n2cnc3c(N)nc(F)nc32)C(F)C1O (stereo not drawn) [Compound Ia]
- EC50 (HIV-1 (HIV-luc/JRFL); [3]): 0.9 nM
- CC50 at 3 days (in vitro): > 8000 nM
- compound Ia in plasma [2]: undetectable

Structure (SMILES): C#C[C@]1(CO)O[C@@H](n2cnc3c(N)ncnc32)C[C@@H]1O [EdA, 4′-ethynyl-2′-deoxyadenosine]
- EC50 (HIV): 11 nM

Structure (SMILES): [N-]=[N+]=NC1(CO)OC(n2cnc3c(N)nc(F)nc32)C(F)C1O (stereo not drawn) [Ib]
- EC50 (HIV-1 (HIV-luc/JRFL); [3]): 0.62 nM
- CC50 at 3 days (in vitro): > 149000 nM
